# Assay results: patent publication US20240417410A1, “TRICYCLIC COMPOUNDS FOR THE TREATMENT OF CANCER” (Hoffmann-La Roche Inc., priority 2023, published 2024)
# How the values were obtained:
# WT HRAS-BRAF complex = assay: WT HRAS-BRAF with CYPA interaction assay (TR-FRET); format: biochemical
# Protocol: In this example, TR-FRET was used to measure the compound or compound-CYPA dependent disruption of the KRAS G12V-BRAF complex to assess inhibition efficacy. The IC50 ratio between WT KRAS/HRAS/NRAS and KRAS G12V mutant was calculated as selective index, which indicated tolerability and safety profile. Disruption of WT KRAS/HRAS/NRAS-BRAF complex by compounds was detected respectively. In assay buffer containing 25 mM HEPES (PH-7.4,4-(2-hydroxyethyl)-1-piperazineethanesulfonic acid, Thermo, 15630080), 0.002% Tween20, 0.1% BSA, 100 mM NaCl, 5 mM MgCl2, 10 μM GMPPNP (Guanosine 5′-[β,γ-imido]triphosphate trisodium salt hydrate, Sigma, G0635), tagless CYPA and GMPPNP loaded 6His-RAS proteins, and GST-BRAF^RBD were mixed in a well of a 384-well assay plate at final concentrations of 50 nM, 6.25 nM and 1 nM, respectively. Compound was present in plate wells as a 16-point 3-fold dilution series starting at a final concentration of 10 μM and incubated for 3 hours. A mixture of MAb Anti-6His-XL665 (Cisbio, 61HISXLB) and Mab anti-GST-TB cryptate (Cisbio, 61GSTTLB) was then added at a final concentration of 6.67 nM and 0.21 nM, respectively, and the plate was incubated for an additional 1.5 hours. TR-FRET signal was read on a PHERstar FSX microplate reader (Ex320 nm, Em 665/615 nm). Compounds that facilitate disruption of the RAS-BRAF complex were identified as those eliciting a decrease in the TR-FRET ratio relative to DMSO control wells.
# KRAS G12C-BRAF complex = KRAS G12C-BRAF complex (Homo sapiens (Human), UniProt P01116+P62937, G12C); assay: KRAS-BRAF with CYPA (500 nM) interaction assay (TR-FRET, Example 136); format: biochemical; settings: KRAS G12C-BRAF disruption
# [1] = test system: Miapaca-2 KRAS G12C + A59T; assay: Stable KRAS mutant cell line viability assay (CellTiter-Glo); format: cell-based; settings: Miapaca-2 mutant cells, 3 d
# Description: (§1) The aim of the study was to determine the potency and efficacy of compounds for cell proliferation using CellTiter-Glo® (CTG) Luminescent Cell Viability Assay (Promega Corp., Madison, WI). We cloned 14 KRAS^G12C variant sequences with secondary mutations (V8A, V9Y, S17E, T58I, A59T, S65W, R68S, D69P, M72I, D92R, H95N, Y96D, Q99W and F156L) into the Miapaca-2. Totally 14 stable Miapaca-2 mutant cell lines were established through lentivirus infection. For the cell viability assay, cells were dosed with compounds in a 9-point dose-response using a 4 fold dilution series at a top dose of 10 μM. KRAS mutant cells were maintained in DMEM+10% FBS+2.5% HI Horse serum+1% PS+1 μg/mL Puromycin and seeded into 96-well plates at 800-1,500 cells per well 24 h before compound addition and then incubated with compound for 3 d before assaying viability (CellTiter-Glo, Promega). Assays were performed in biological duplicates. Nonlinear regression curves were fitted using Xfit. IC50 (absolute IC50) is the dose at which the estimated viability is 50% relative to untreated wells.
# [2] = test system: Miapaca-2 KRAS G12C + V9Y; assay: as above; format: cell-based; settings: Miapaca-2 mutant cells, 3 d
# Description: as §1
# [3] = test system: Miapaca-2 KRAS G12C + S65W; assay: as above; format: cell-based; settings: Miapaca-2 mutant cells, 3 d
# Description: as §1
# [4] = test system: Miapaca-2 KRAS G12C + M72I; assay: as above; format: cell-based; settings: Homo sapiens, MIA PaCa-2, 72 h; Miapaca-2 mutant cells, 3 d
# Description: as §1
# [5] = test system: Miapaca-2 KRAS G12C + D92R; assay: as above; format: cell-based; settings: Miapaca-2 mutant cells, 3 d
# Description: as §1
# [6] = test system: Miapaca-2 KRAS G12C + Y96D; assay: as above; format: cell-based; settings: Miapaca-2 mutant cells, 3 d
# Description: as §1
# AGS cells (KRAS G12D) = assay: Cell viability assay (Cell Counting Kit-8, 3-day); format: cell-based, human; settings: Homo sapiens, 72 h, 72 hrs incubation
# How it was run: (§2)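 Read-out is CCK-8 absorbance (OD450 minus OD650, 2 hrs after reagent), reflecting NADPH after 72 hrs of compound exposure in 0.5% DMSO. Seeding density was 5,000 cells/well for NCI-H358 and 2,000 for AGS and SW620. IC50 derived by 4-parameter sigmoidal fitting.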
# [7] = test system: NCI-H358 cells (KRAS G12C); assay: Cell viability assay (Cell Counting Kit-8, 3-day); format: cell-based, human; settings: Homo sapiens, NCI-H358, 72 h, NCI-H358, 72 hrs incubation
# How it was run: as §2
# SW620 cells (KRAS G12V) = assay: Cell viability assay (Cell Counting Kit-8, 3-day); format: cell-based, human; settings: Homo sapiens, SW-620; SW620, 72 hrs incubation
# How it was run: as §2
# Chain of KRAS G12C-BRAF complex (P01116-2 other isoform, or with tags, fused parts or gaps G12C): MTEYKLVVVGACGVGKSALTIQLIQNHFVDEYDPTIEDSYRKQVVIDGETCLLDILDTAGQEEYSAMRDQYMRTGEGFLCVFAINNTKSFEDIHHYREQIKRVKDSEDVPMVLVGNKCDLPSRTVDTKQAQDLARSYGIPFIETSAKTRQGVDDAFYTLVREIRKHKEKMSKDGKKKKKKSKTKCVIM
# Chain of KRAS G12C-BRAF complex (P62937 whole entry): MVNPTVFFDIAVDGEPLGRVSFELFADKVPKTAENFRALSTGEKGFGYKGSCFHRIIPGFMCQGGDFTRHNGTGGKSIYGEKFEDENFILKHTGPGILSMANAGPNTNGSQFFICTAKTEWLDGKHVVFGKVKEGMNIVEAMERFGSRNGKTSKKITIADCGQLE
smiles,measurement,setting,value
"CO[C@@H](C)c1ncc(N2CCN(C)CC2)cc1-c1c2c3cc(cc4c3n1CCC4)-c1csc(n1)C[C@H](NC(=O)[C@H]1[C@H](C)[C@@H]1C)C(=O)N1CCC[C@H](N1)C(=O)OCC(C)(C)C2 (atropisomer, axis not shown; (M)) [Example 24, (1r,2R,3S)-N-[(7S,13S)-(20M)-20-[2-[(1S)-1-methoxyethyl]-5-(4-methylpiperazin-1-yl)-3-pyridyl]-17,17-dimethyl-8,14-dioxo-15-oxa-4-thia-9,21,30,31-tetrazahexacyclo[23.3.1.1^2,5.1^9,13.0^19,27.0^21,26]hentriaconta-1 (28),2,5 (31), 19,25 (29),26-hexaen-7-yl]-2,3-dimethyl-cyclopropanecarboxamide]",Selectivity Index (IC50 ratio) WT HRAS/KRAS G12V,WT HRAS-BRAF complex,5.4
same,IC50,KRAS G12C-BRAF complex,9.7 nM
same,IC50,[1],6 nM
same,IC50,[2],1 nM
same,IC50,[3],1 nM
same,IC50,[4],1 nM
same,IC50,[5],2 nM
same,IC50,[6],2 nM
same,IC50,AGS cells (KRAS G12D),4.7 nM
same,IC50,[7],1.3 nM
same,IC50,SW620 cells (KRAS G12V),0.3 nM
